Assays:
human GR = target: T1, human GR (Homo sapiens, UniProt P04150); assay: glucocorticoid receptor (GR) binding test, cytosol of Sf9 cells, [3H]-dexamethasone; conditions: human GR from Sf9 cytosol
T1 construct: made in house; host or cells: Sf9 cells infected with recombinant baculovirus (cytosol preparation)
T1 sequence (P04150 1-777): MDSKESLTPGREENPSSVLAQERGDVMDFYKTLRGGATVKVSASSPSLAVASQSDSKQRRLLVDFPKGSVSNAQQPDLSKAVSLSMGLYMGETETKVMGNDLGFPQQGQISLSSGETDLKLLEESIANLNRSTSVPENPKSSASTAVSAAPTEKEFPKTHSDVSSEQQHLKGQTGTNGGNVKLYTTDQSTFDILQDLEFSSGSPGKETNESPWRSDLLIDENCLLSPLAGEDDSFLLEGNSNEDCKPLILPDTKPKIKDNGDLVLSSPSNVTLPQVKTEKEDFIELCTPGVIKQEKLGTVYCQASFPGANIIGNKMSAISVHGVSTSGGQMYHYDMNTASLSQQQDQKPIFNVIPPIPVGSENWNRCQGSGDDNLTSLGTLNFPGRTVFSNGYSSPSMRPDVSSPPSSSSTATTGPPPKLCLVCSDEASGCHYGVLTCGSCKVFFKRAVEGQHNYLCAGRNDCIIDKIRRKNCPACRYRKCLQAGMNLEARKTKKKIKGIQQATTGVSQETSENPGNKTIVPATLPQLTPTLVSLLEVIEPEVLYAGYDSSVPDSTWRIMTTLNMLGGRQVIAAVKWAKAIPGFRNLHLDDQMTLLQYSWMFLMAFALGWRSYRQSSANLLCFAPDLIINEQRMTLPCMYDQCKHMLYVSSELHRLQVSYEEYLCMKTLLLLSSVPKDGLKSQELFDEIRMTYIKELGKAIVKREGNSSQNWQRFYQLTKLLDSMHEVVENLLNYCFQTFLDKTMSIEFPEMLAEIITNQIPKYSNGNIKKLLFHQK
Description: The binding of substances to the glucocorticoid receptor (GR) is examined with the aid of a recombinantly produced receptor. Cytosol preparations of Sf9 cells, which had been infected with recombinant baculoviruses, which code for the GR, are used for the binding studies.

[1] = system: tyrosinamino transferase (TAT); assay: induction of tyrosinamino transferase (TAT) in liver homogenates; assay type: in vivo; conditions: mice, 8 hours after administration, vs untreated control
Description: One of the most frequent undesirable effects of a glucocorticoid therapy is the so-called “steroid diabetes” [cf. Hatz, H. J., Glucocorticoide: Immunologische Grundlagen, Pharmakologie und Therapierichtlinien [Glucocorticoids: Immunological Bases, Pharmacology and Therapy Guidelines], Wissenschaftliche Verlagsgesellschaft mbH, Stuttgart, 1998]. The reason for this is the stimulation of the gluconeogenesis in the liver by induction of the enzymes that are responsible for this effect and by free amino acids, which develop from the degradation of proteins (catabolic action of glucocorticoids). A key enzyme of the catabolic metabolism in the liver is the tyrosinamino transferase (TAT). The activity of this enzyme can be determined photometrically from liver homogenates and represents a good yardstick of the undesirable metabolic actions of the glucocorticoids. To measure the TAT induction, the animals are sacrificed 8 hours after the test substances are administered, the livers are removed, and the TAT activity in the homogenate is measured.
As parameters for the side effects of the catabolic metabolism induced by steroids, the activity of the enzyme tyrosinamino transferase (TAT) was determined by photometry from liver homogenates. The activity represents a good yardstick for the undesirable catabolic actions of the glucocorticoids. To measure the TAT induction, the animals (mice and rats) are killed 8 hours after the test substance is administered, the liver is removed, and the TAT activity is measured in the homogenates.

GR (IL-6 promoter) = target: T2, GR (IL-6 promoter) (Homo sapiens, UniProt P04150); assay: reporter gene test in HeLa cells, transrepression, IL-6 promoter-luciferase; conditions: for Emax: HeLa, read-out: Transrepression (TR)(IL-6-Promoter) Efficacy
T2 sequence (P04150 1-777): T1 sequence (P04150 1-777)
Procedure: (§1) The MMTV promoter (transactivation) and the IL-6 promoter (transrepression) in each case were upstream to the gene that codes for the luciferase. By means of the photometric determination of the enzyme activity of the luciferase, it was possible to measure the activation of the transcription (MMTV-promoter-construct) or the inhibition of the transcription (IL-6-promoter-construct) by the GR.
(§2) This dissociation of the mechanisms of action was determined with the aid of the reporter gene test in stable transfixed human HeLa cells. To determine the transactivation induced by the GR, the MMTV promoter, which is set before a luciferase gene, is used. Via the photometric determination of the luciferase activity, it was possible to determine the transactivation activities of the GR after binding the test compounds. The inhibition of the transcription of the luciferase gene, induced by tetradecanoyl-phorbol acetate (TPA) under the control of the IL-6 promoter or the collagenase promoter (transpression) by the GR after binding the test substances, was also determined by the measurement of luciferase activity in HeLa cells.

[2] = system: secretion of cytokine IL-8 in human monocyte cell line THP-1; assay: inhibition of LPS-triggered IL-8 secretion in THP-1 cells (ELISA); assay type: cell-based; set-up: Inhibition of IL-8 Secretion Efficacy: concentration or dose not given beside the values; conditions: THP-1, LPS-triggered; for IC50: Homo sapiens
Procedure: The concentration of the cytokines was determined in the supernatant with use of commercially available ELISA kits.
The potency of the inflammation inhibition is determined by the inhibition of the secretion of cytokine IL-8 in a cellular test. […] The concentration of the cytokine was determined in the supernatant by commercially available ELISA kits. In this connection, the compounds of formula I show a high to very high potency and action (>50%) in the inhibition (see Table 4). The potency of the racemates is considerably lower than that of the pure enantiomers.

GR (MMTV promoter) = target: T3, GR (MMTV promoter) (Homo sapiens, UniProt P04150); assay: reporter gene test in HeLa cells, transactivation, MMTV promoter-luciferase; conditions: for Transactivating (TA)(MMTV-Promoter) Efficacy: HeLa cells, luciferase; for TA:TR EC50:IC50: MMTV promoter EC50 : IL-6 promoter IC50
T3 sequence (P04150 1-777): T1 sequence (P04150 1-777)
Procedure: as §1, §2

[3] = system: croton oil-induced inflammation; assay: croton oil-induced ear inflammation, edema formation in mice; assay type: in vivo; conditions: systemic, two hours before croton oil, ear weight
Procedure: The antiinflammatory actions of the compounds of general formula I were tested in the animal experiment by tests in the croton oil-induced inflammation in rats and mice (J. Exp. Med. (1995), 182, 99–108). In this connection, croton oil in ethanolic solution was administered topically to the animals' ears. The test substances were also administered topically or systemically simultaneously with or two hours before the croton oil. After 16–24 hours, the ear weight was measured as a yardstick of the inflammatory edema, the peroxidase activity was measured as a yardstick of the invasions of granuloctyes, and the elastase activity was measured as a yardstick of the invasion of neutrophilic granuloctyes.
The antiinflammatory action of the compounds of general formula I were tested in an animal experiment in croton oil-induced inflammation in mice and in rats (J. Exp. Med. (1995), 182, 99–108). In this connection, croton oil in ethanolic solution was administered topically to the animals' ears. The test substances were systemically administered for two hours before the croton oil. After 16–24 hours, the ear weight was measured as a yardstick for the inflammatory edema.

[4] = target: T4, GR (collagenase promoter) (Homo sapiens, UniProt P04150); assay: reporter gene test in HeLa cells, transrepression, collagenase promoter-luciferase; assay type: cell-based; conditions: TPA-induced; for IC50: read-out: Transrepression (TR)(Collagenase Promoter) IC50
T4 construct: endogenous in cells; host or cells: HeLa cells stably transfected with promoter-luciferase reporters (MMTV, IL-6 or collagenase promoter)
T4 sequence (P04150 1-777): T1 sequence (P04150 1-777)

SMILES	IC50 (human GR)	Induction Factor for TAT with 3 mg/kg [1]	Induction Factor for TAT with 30 mg/kg [1]	IC50 (GR (IL-6 promoter))	Emax (GR (IL-6 promoter))	IC50 [2]	EC50 (GR (MMTV promoter))	Transactivating (TA)(MMTV-Promoter) Efficacy (GR (MMTV promoter))	TA:TR EC50:IC50 (GR (MMTV promoter))	Transrepression (TR)(Collagenase Promoter) Efficacy [4]	IC50 [4]	melting point	Inhibition of IL-8 Secretion Efficacy [2]	Edema Inhibition with 3 mg/kg [3]	Edema Inhibition with 30 mg/kg [3]
Cc1noc(=O)c2ccc(NC(=O)C(O)(CC(C)(C)c3cccc4c3OCO4)C(F)(F)F)cc12 (single isomer, unassigned; (+)) [Example 2, (+)-6-[4-(Benzo[1,3]dioxol-4-yl)-2-hydroxy-4-methyl-2-trifluoromethyl-valeroyl-amino]-4-methyl-2,3-benzoxazin-1-one]	< 0.3 nM	1.4	2.4	0.92 nM	66%	29 nM	11 nM	71%	11.9	92%	3.7 nM		57%	55%	86%
Cc1noc(=O)c2ccc(NC(=O)C(O)(CC(C)(C)c3cc(F)cc4c3OCO4)C(F)(F)F)cc12 (racemic) [Example 18]				5.7 nM	63%							215 to 217 °C			
Cc1noc(=O)c2ccc(NC(=O)C(O)(CC3(c4cccc5c4OCC5)CC3)C(F)(F)F)cc12 (single isomer, unassigned) [Example 13]	< 0.3 nM					37 nM						249 to 255 °C	68%		

The next lines start with results.

IC50 (human GR)	Induction Factor for TAT with 3 mg/kg [1]	Induction Factor for TAT with 30 mg/kg [1]	IC50 (GR (IL-6 promoter))	Emax (GR (IL-6 promoter))	IC50 [2]	EC50 (GR (MMTV promoter))	Transactivating (TA)(MMTV-Promoter) Efficacy (GR (MMTV promoter))	TA:TR EC50:IC50 (GR (MMTV promoter))	Transrepression (TR)(Collagenase Promoter) Efficacy [4]	IC50 [4]	melting point	SMILES	Inhibition of IL-8 Secretion Efficacy [2]	Edema Inhibition with 3 mg/kg [3]	Edema Inhibition with 30 mg/kg [3]
0.35 nM	1.0	2.0	1.5 nM	79%	31 nM	13 nM	59%	8.7	105%	3.4 nM		Cc1noc(=O)c2ccc(NC(=O)C(O)(CC3(c4cc(F)ccc4O)CCC3)C(F)(F)F)cc12 (single isomer, unassigned) [Example 29]	86%	34%	66%
2 nM					860 nM						138 °C	Cc1noc(=O)c2ccc(NC(=O)C(O)(CC3(c4cc(F)ccc4O)CCC3)C(F)(F)F)cc12 (racemic) [Example 28]	100%		

Reference: patent US7112584B2, “Nonsteroidal antiinflammatory agents” (Schering AG, priority 2002, dated 2006)
